Where a name gives a salt, the structure may show the parent alone.

The source of these data is patent publication US20120172598A1, “COMPOUNDS HAVING TAFIa INHIBITORY ACTIVITY” (TAISHO PHARMACEUTICAL CO., LTD., priority 2009, published 2012).

This test concerns the target T1, TAFIa (Homo sapiens, UniProt Q96IY4).
T1 construct: purchased Enzyme Research Laboratories
T1 sequence (Q96IY4 115-423): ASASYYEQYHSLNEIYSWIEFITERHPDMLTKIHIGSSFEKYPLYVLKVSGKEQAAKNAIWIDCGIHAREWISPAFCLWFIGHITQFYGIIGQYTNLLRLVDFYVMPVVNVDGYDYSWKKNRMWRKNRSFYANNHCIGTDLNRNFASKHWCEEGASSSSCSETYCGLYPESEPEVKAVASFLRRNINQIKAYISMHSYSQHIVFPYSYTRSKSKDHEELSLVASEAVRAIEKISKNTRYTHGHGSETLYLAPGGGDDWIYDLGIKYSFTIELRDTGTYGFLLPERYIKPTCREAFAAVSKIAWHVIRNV
Put plainly: TAFIa inhibition test (Hip-Arg substrate, absorbance at 405 nm). The format is biochemical. The note with it: TAFI activated with thrombin/thrombomodulin, 40 minutes at room temperature, read-out: TAFIa inhibitory activity IC50. The procedure: Test 1 [TAFIa Inhibition Test]
Compounds of the present invention were measured for their TAFIa inhibitory activity as follows based on the method described in Thromb. Haemost. 79, 371-377 (1998).
(a) Preparation of TAFIa Solution
To 450 μl of TAFI (the product of Enzyme Research Laboratories whose concentration was adjusted to 18 μg/ml with buffer A: 100 mM Tris-HCl, pH 7.4), 45 μl of a thrombomodulin solution (a rabbit lung derived thrombomodulin produced by American Diagnostica whose concentration was adjusted to 1 μg/ml with buffer B: 50 mM Tris-HCl, pH 7.5, containing 0.15 M NaCl) and 45 μl of a thrombin solution (a freeze-dried human plasma derived thrombin produced by Sigma and dissolved in water to have a concentration of 30 μU/ml) were added and the mixture was left to stand at room temperature for 25 minutes.
(b) Method of Measuring TAFIa Inhibitory Activity […]
Subsequently, a color former (1% cyanuric chloride in 1,4-dioxane) was added in an amount of 50 μl to each well and the plate was left to stand for 3 minutes at room temperature, then absorbance at 405 nm was measured with a microplate reader (Spectramax M2 of Molecular Devices). […]
For two compounds of the present invention, the above test was conducted and on the basis of the results of measurements, TAFIa inhibitory activity was calculated to give the results shown in Table 2.

Turning to `N[C@H]1CCN([C@@H](Cc2ncn3c2CCc2ccccc2-3)C(=O)O)C1` [Compound 1, (2S)-2-[(3S)-3-aminopyrrolidin-1-yl]-3-(4,5-dihydroimidazo[1,5-a]quinolin-3-yl)propanoic acid trihydrochloride], the IC50 came to 36 nM.
Turning to `Cc1ccc2c(c1)CCc1c(C[C@@H](C(=O)O)N3CC[C@H](N)C3)ncn1-2` [Compound 2, (2S)-2-[(3S)-3-aminopyrrolidin-1-yl]-3-(7-methyl-4,5-dihydroimidazo[1,5-a]quinolin-3-yl)propanoic acid trihydrochloride], the concentration for half-maximal inhibition (IC50) was 23 nM.
